{
  "source": "patent US9506907B2",
  "about": "“Bioengineered human trabecular meshwork for biological applications” (The Research Foundation of State University of New York, priority 2012, dated 2016)",
  "key": {"[1]": {"test_system": "bioengineered HTM (primary HTM cells on gelatin-coated 12 μm SU-8 scaffolds)", "assay": "Perfusion of bioengineered HTM on SU-8 scaffold: transmembrane pressure at constant flow", "assay_type": "cell-based, human", "text": "1. The flow system apparatus (FIG. 2) incorporating the principles and features of this invention is contained within a controlled environment, which herein comprises of a stand-alone perfusion chamber, with a cell growth medium entry system (FIG. 2c; 204) and a screening agent (for example a glaucoma drug) entry system (FIG. 2c; 204) as shown in FIG. 2c. The system allows for the screening agent to be added to the perfusate at a pre-determined concentration for a pre-determined number of hours. […]\n8. […] Back pressures were continuously monitored with a pressure transducer and recorded. […]\n(§1) A flow system apparatus for the controlled flow pressure measurement was constructed as shown in FIG. 2C was contained in a perfusion chamber housing comprised of at least a perfusion chamber with an integrated pressure transducer (FIG. 2C; 206), the sterilized, HTM biocompatible coated, SU-8 3-D micro- and nanostructured scaffold with or without HTM cells placed within a cell-culture insert (FIG. 2A; 202) and were secured in the scaffold holder, comprising at least a bottom element adapted for effluent (FIG. 2A; 203), a top element adapted for media entry (FIG. 2A; 201) inside the perfusion chamber (FIG. 2c). […] Back pressures were continuously monitored with a pressure transducer (FIG. 2C; 206) and recorded. […]"}, "[2]": {"test_system": "HTM cells grown on SU-8 scaffolds (morphology, F-actin cytoskeleton)", "assay": "SEM and confocal imaging of HTM cells on SU-8 scaffolds after Lat-B perfusion", "assay_type": "cell-based, human", "conditions": "FIG. 15F", "text": "11. Follow up cell characterization studies may be conducted as desired with standard techniques well known to those of skill in the art. For this invention, samples were fixed and stained for SEM and confocal image analysis as described herein (FIGS. 11-15).\nCells were characterized using standard procedures for SEM, Immunocytochemistry and confocal imaging, well known to those of skill in the art.\nas §1, with “2c). This flow system allowed for simultaneous control of the flow and measurement of the transmembrane pressure, permitting the exploration of the outflow characteristics of the in vitro HTM model.” for “2c).”"}},
  "data": [
    {"compound": "C/C1=C/C(=O)O[C@@H]2C[C@@H](CC[C@H](C)/C=C\\CC1)O[C@@](O)([C@@H]1CSC(=O)N1)C2", "note": "[Lat-B, latruncunlin-B]", "values": [
      {"measurement": "perfusion pressure of the artificial trabecular meshwork after Lat-B treatment", "setting": "[1]; FIG. 16, indicates decreased flow resistance", "value": "decreased dramatically"},
      {"measurement": "decrease of the resistance to flow", "setting": "[1]; Lat-B added to the perfusate at 2 μM for 4 hours, constant flow, 34° C., N=8, p<0.05 (FIG. 16)", "value": "92±6", "unit": "%"},
      {"measurement": "F-actin cytoskeleton (confocal)", "setting": "[2]", "value": "elongated actin fibers were disturbed and became punctate actin bundles"}
    ]}
  ]
}
